Results from ChEMBL document CHEMBL5113370, “Primed for global coronavirus pandemic: Emerging research and clinical outcome” (Eur J Med Chem, 2021).

Legend:
SARS-CoV-2 [1] = test: Antiviral activity against SARS-CoV 2 nCoV-2019BetaCoV/Wuhan/WIV04/2019 infected in african green monkey Vero E6 cells measured after 48 hrs; type: functional, organism-based; settings: Severe acute respiratory syndrome coronavirus 2, nCoV-2019BetaCoV/Wuhan/WIV04/2019, Vero C1008, 48 h
[2] = Cytotoxicity against African green monkey Vero cells by CCK8 assay method; type: toxicity, cell-based; settings: chlorocebus sabaeus
[3] = Selectivity index, ratio of IC50 for African green monkey Vero cells to IC50 for antiviral activity against SARS-CoV 2 nCoV-2019BetaCoV/Wuhan/WIV04/2019; type: toxicity; settings: read-out: Ratio IC50
SARS-CoV-2 [4] = test: Antiviral activity against SARS-CoV 2 infected in african green monkey Vero E6 cells by immunofluorescence assay; type: functional, organism-based; settings: Severe acute respiratory syndrome coronavirus 2, Vero C1008

Row | SMILES | EC50 (SARS-CoV-2 [1]) [µM] | CC50 [2] [µM] | selectivity ratio [3] | IC50 (SARS-CoV-2 [4]) [µM]
1 | NC(=O)c1ncn([C@@H]2O[C@H](CO)[C@@H](O)[C@H]2O)n1 [RIBAVIRIN] | 110 | > 400 | > 3.65 | –
2 | CCN(CC)CCOc1ccc2c(c1)C(=O)c1cc(OCCN(CC)CC)ccc1-2 [TILORONE] | – | – | – | 4.09
